Patent US6617440B1, “Myostatin regulatory region, nucleotide sequence determination and methods for its use” (Pfizer, Inc., priority 1999, dated 2003)

Tests used:
C2C12 muscle cells = assay: Expression of porcine GHRH from a myostatin promoter vector transiently transfected into C2C12 muscle cells; format: cell-based, murine; conditions: transient transfection, compared with a CMV promoter
Source text: Direct injection into muscle of DNA plasmids with muscle specific or constitutive promoters results in expression of the gene under control of that promoter. A vector utilizing the murine 2.5 kb myostatin promoter to drive expression of porcine growth hormone releasing hormone (GHRH) was constructed. […] In accordance with the present invention, the construct may be directly introduced into a host by direct injection of naked DNA.

[1] = tested on: luciferase reporter gene in C2C12 cells; assay: Transient transfection luciferase reporter assay of myostatin promoter fragments; format: cell-based, murine; conditions: normalized against Renilla luciferase activity
Description: C2C12 are murine muscle cell lines (ATCC #CRL-1772). These cells were maintained in standard culture media at 37° C.
The 1.8 kb and 2.5 kb myostatin promoter fragments and additional subclones of 320 bp and 901 bp proximal to the myostatin protein coding region were placed into the multicloning site of the pGL3 basic vector (Promega) 5′ to the coding sequence for luciferase. In this vector, the luciferase gene lacks a promoter, and, consequently, is under the control of any promoter cloned upstream of it. These plasmid vectors were used to transiently transfect C2C12 cells, using Fugene (Boehringer Mannheim) as a carrier to introduce the plasmid into the cells. The cell cultures were grown at 37° C., 5% CO2, in DMEM, and luciferase activity was measured using a commercial kit (Promega Luciferase Assay System, E150).
The ability of the various fragments of the murine myostatin promoter region to control expression of the luciferase reporter gene in transient transfection assays is shown in FIG. 2. In each experiment, C2C12 cells were co-transfected with a second vector that employs a CMV promotor to express constitutively a Renilla luciferase gene (pRL-CMV, Promega). Values presented for the myostatin promoter constructs were all normalized against Renilla luciferase activity.

With “2.5 kb fragment: 2482 bp DNA fragment immediately 5' to the murine myostatin gene, the murine myostatin promoter (SEQ ID NO: 1)” as the substance, how does the “expression of GHRH detected in culture supernatants” value (C2C12 muscle cells) read?
Its value is “levels similar to those found using a CMV promoter”.

What about the “transcriptional activity (luciferase reporter expression), in words” value [1] of the same substance?
The value was “strongest promoter of those tested”.
